# Experimental data reported in article PMC4965013, “Open Source Drug Discovery with the Malaria Box Compound Collection for Neglected Diseases and Beyond” (PLoS Pathogens, 2016).
# How the values were obtained:
# [1] = tested on: CYP 2C19; conditions: cited from earlier work
# [2] = set-up: method as in ref WuXi; conditions: WuXi's Acceptance Range For Positive Controls; ref WuXi; cited from earlier work
# [3] = cited from earlier work
# [4] = target: T1, M3 receptor (Homo sapiens, UniProt P20309); test: M3 radioligand binding; conditions: reference compound
# T1 construct: purchased Perkin Elmer
# T1 sequence (P20309 whole entry): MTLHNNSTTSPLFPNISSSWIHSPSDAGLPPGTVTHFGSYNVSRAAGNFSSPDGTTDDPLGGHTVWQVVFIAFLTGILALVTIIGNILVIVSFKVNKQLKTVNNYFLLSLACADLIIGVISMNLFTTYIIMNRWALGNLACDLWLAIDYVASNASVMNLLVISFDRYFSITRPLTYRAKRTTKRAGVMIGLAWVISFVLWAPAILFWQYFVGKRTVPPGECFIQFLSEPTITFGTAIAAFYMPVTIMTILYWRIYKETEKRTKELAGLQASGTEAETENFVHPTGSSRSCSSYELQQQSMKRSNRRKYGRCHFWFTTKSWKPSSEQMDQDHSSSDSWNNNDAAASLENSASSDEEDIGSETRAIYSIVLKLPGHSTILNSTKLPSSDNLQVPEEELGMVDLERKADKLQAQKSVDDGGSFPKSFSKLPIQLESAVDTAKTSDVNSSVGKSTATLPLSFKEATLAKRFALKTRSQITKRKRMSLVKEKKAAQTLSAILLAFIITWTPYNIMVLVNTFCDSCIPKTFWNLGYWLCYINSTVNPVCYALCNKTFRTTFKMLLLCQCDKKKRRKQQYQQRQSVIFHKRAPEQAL
# [5] = target: T2, 5-HT4 receptor (Homo sapiens, UniProt Q13639); test: 5-HT4 radioligand binding; conditions: reference compound
# T2 construct: expressed in transfected cells; host or cells: HeLa
# T2 sequence (Q13639 whole entry): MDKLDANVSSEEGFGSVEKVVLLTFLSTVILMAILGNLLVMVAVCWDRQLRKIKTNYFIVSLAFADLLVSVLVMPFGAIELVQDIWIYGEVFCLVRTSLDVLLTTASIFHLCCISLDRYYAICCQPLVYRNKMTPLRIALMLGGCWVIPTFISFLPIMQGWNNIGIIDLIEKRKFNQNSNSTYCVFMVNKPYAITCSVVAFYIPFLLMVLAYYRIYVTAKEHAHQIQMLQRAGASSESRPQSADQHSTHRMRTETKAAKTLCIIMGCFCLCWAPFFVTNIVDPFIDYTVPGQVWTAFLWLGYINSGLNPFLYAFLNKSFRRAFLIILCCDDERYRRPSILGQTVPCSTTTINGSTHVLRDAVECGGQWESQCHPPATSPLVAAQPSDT
structure (smiles),measurement,setting,value
"CCC1(c2ccccc2)NC(=O)N(Cc2ccccc2)C1=O (single isomer, unassigned; (+)) [(+)-N-3-benzylnirvanol]",CYP 2C19 IC50 Acceptance Range,[1],0.100~0.350 μM
NC(=O)N1c2ccccc2C=Cc2ccccc21 [Carbamazepine],Kinetic Solubility pH=7.4,[2],43 ± 4 µg/mL
CC(=O)CC(c1ccccc1)c1c(O)c2ccccc2oc1=O (centres unmarked) [Warfarin],Plasma Protein Binding Bound% Human,[3],>98%
O[Si](CCCN1CCCCC1)(c1ccc(F)cc1)C1CCCCC1 (centres unmarked) [p-F-HHSiD],Ki,[4],34.4 nM
Cn1cc(C(=O)OCC2CCN(CCNS(C)(=O)=O)CC2)c2ccccc21 [GR113808],Ki,[5],0.45 nM
